Columns and labels:
SCD-Selp−/− mice [1] = assay: cNETs in platelet-poor plasma by Imaging Flow Cytometry, SCD-Selp−/− mice; type: in vivo, mouse; conditions: IV 10 μmole/kg oxy-Hb with 10 mg/kg inhibitor vs oxy-Hb alone
Protocol: (§1) (FIG. 5A) Experimental scheme: SCD or SCD-Selp^−/− mice were IV administered 10 μmole/kg oxy-Hb (10 oxy-Hb) without or with 10 mg/kg GSDMD inhibitors LDC75591 or Disulfiram. In FIGS. 5C-5D, venous blood was processed to generate PPP and cNETs detected in PPP using Imaging Flow Cytometry. Imaging Flow Cytometry data was quantified to estimate concentration of cNETs (#cNETs/μl of plasma). In FIGS. 5B, and 5E-5F, quantitative fluorescence intravital lung microscopy (qFILM) was used to detect arrival of circulating NETs (cNETs) within the lung microcirculation. Number of cNETs entering per FOV over a 1-minute duration (#cNETs/FOV/min) were quantified. In FIGS. 5G-5J, qFILM was used to assess the absence or presence of pulmonary vaso-occlusion using the experimental strategy described in FIG. 1A. Pulmonary vaso-occlusions (PVOs) were compared between treatment groups using following two parameters: Number of PVOs per Field of View (#PVOs/FOV) and number of large PVOs (with area>1000 μm^2) per FOV. (FIG. 5B) #cNETs/FOV/min in SCD mice IV administered 10 oxy-Hb were not different from SCD-Selp^−/− mice IV administered 10 oxy-Hb. SCD IV Oxy-Hb (n=4 mice; 44 FOVs). SCD-Selp^−/− IV oxy-Hb (n=5 mice; 71 FOVs). (FIG. 5C) Plasma concentration of cNETs was not different between SCD and SCD-Selp^−/− mice (n=4 mice per group) IV administered 10 oxy-Hb. […]

SCD-Selp−/− mice [2] = assay: qFILM detection of circulating NETs arriving in the lung microcirculation, SCD-Selp−/− mice; type: in vivo, mouse; conditions: IV 10 μmole/kg oxy-Hb with 10 mg/kg inhibitor vs oxy-Hb alone, significant
Protocol: as §1, with “FOV.” for “FOV. (FIG. 5B) #cNETs/FOV/min in SCD mice IV administered 10 oxy-Hb were not different from SCD-Selp^−/− mice IV administered 10 oxy-Hb. SCD IV Oxy-Hb (n=4 mice; 44 FOVs). SCD-Selp^−/− IV oxy-Hb (n=5 mice; 71 FOVs). (FIG. 5C) Plasma concentration of cNETs was not different between SCD and SCD-Selp^−/− mice (n=4 mice per group) IV administered 10 oxy-Hb.”
Quantitative fluorescence intravital lung microscopy (qFILM) has been used widely for in vivo assessment of pulmonary vasoocclusion in mice with SCD [Bennewitz M F et al., (2017); Vats R, Brzoska T, Bennewitz M F, et al. (2020); Vats R, Tutuncuoglu E, Pradhan-Sundd T, Tejero J, Shaw G D, Sundd P. (2020); Bennewitz M F, Tutuncuoglu E, Gudapati S, et al. (2020)] […]

COc1ccccc1-c1cc2n(n1)Cc1ccc(NC(C)=O)cc1OC2 [LDC7559]
Plasma concentration of cNETs (#cNETs/μl of plasma) (SCD-Selp−/− mice [1]): significantly less | #cNETs/FOV/min in the lung, less than 10 oxy-Hb alone (SCD-Selp−/− mice [2]): 4 folds
